This note sets out measurements from patent publication US20080090788A1, “Chemical Compounds” (priority 2005, published 2008).

One experiment has as its system NF-kB. Description: NF-kB luciferase reporter activity in LPS-stimulated U937-kBluc cells. The format is cell-based, human. The following applies: for IC50: Homo sapiens, U937-kBluc cells, LPS 0.3 μg/ml, 6 hours, mean of duplicate determinations ±SD, read-out: IC50 for inhibition of LPS-induced NF-kB activity. The method, then:
U937-kBluc cells were cultured in a 96 well plate (2×10^4 cells in 100 μl in each well) and stimulated with 0.3 μg/ml LPS (lipopolysaccaride; Sigma Aldrich). After 6 hours, cells were collected and luciferase activity determined using the luclite reagent (Perkin Elmer UK, Beaconsfield, UK) and a Packard TopCount (Perkin Elmer), as described by the manufacturer. To determine the effect of SFZ and analogues, various concentrations of each compound or an equivalent amount of DMSO as a solvent control were added 1 hour prior to addition of LPS. Each determination was made in triplicate. A cell line containing an NF-kB reporter construct was used to determine the effects of SFZ analogues on NF-kB activity. Cells were treated with LPS to induce NF-kB activity in the presence or absence of each compound, or DMSO as a solvent control, and luciferase activity analysed as a measure of NF-kB dependent transcription (FIG. 1). […] U937-kBluc cells were treated with LPS to activate NF-kB in the presence of increasing concentrations of SFZ, derivatives (3a-f), or DMSO as a solvent control. For each concentration of compound, the percentage inhibition of luciferase activity relative to cells treated with an equivalent amount of DMSO was calculated. (A) Representative dose response experiment (♦, 3a; ▪, SFZ). Each data point is the mean of triplicate samples (±SEM). (B) Detailed dose response assays were performed for compounds which gave >50% inhibition at 2 mM. The mean IC50 value (±SD) for inhibition of LPS-induced NF-kB activity is derived from 2 independent experiments, each performed in triplicate.

The subject of a further experiment is IkB-α. Description: IkB-α phosphorylation and degradation by immunoblotting in LPS-stimulated U937 cells. The format is cell-based, human. Conditions: 30 minutes after LPS; for effect on IkB-α phosphorylation and degradation: 1 hour pretreatment. The method, then: Western blotting was performed as previously described (Brimmell M, Burns J S, Munson P, et al. High level expression of differentially localized BAG-1 isoforms in some oestrogen receptor-positive human breast cancers. Br J Cancer 1999; 81: 1042-51). IkB-α and phospho-Ser32 specific IkB-α antibodies were from Cell Signaling Technology (Hitchin, UK). The PARP antibody (C2-10 clone) was from R&D Systems (Abingdon, UK).
To determine the kinetics of modulation of IkB-α by LPS, U937 cells were treated with LPS for up to 120 minutes and total IkB-α and phosphorylated IkB-αanalysed by immunoblotting. There was a rapid accumulation of phosphorylated IkB-α, accompanied by IkB-α degradation (FIG. 3a). To confirm that the enhanced NF-kB inhibitory activity of compounds 3a, 3e and 3f was due to increased inhibition of IKK, we pretreated cells with these compounds and then stimulated them with LPS. IkB-α was analysed at 30 minutes after the addition of LPS because it was possible to monitor both phosphorylation and degradation at this time. […] Therefore, the improved NF-kB inhibitory activity of compounds 3a, 3e and 3f is associated with effective inhibition of IkB-α phosphorylation.
(A) U937-kBluc cells were treated with LPS for the indicated times and expression of total IkB-α and phosphorylated IkB-α determined by immunoblotting. (B) U937-kBluc cells were pretreated with the indicated concentrations of compounds or left untreated. After 1 hour, cells were stimulated with LPS. Control cells were cultured in the absence of LPS. Cells were harvested after 30 minutes and the expression of total IkB-α and phosphorylated IkB-α determined by immunoblotting. The signals were quantified by digital image analysis and the fold increase in IkB-α phosphorylation and percent expression of total IkB-α relative to control cells is shown.

In the next experiment the test system is ARH77 cells. Description: Cell death in ARH77 cells, propidium iodide flow cytometry. The experiment is classed as cell-based. The following applies: Homo sapiens, ARH-77; 20 hours, PI uptake; mean of two determinations ±SD; read-out: IC50 for induction of ARH77 cell death. The method, then: A flow cytometry method was used to determine the ability of SFZ analogues to induce cell death in ARH77 cells. The proportion of cells that had lost plasma membrane integrity was used as a measure of cell viability. ARH77 (5×10^4) cells were incubated in a volume of 200 μl in 96 well plates with compound, an equivalent amount of DMSO or were left untreated as a control. After 20 hours, cells were washed in phosphate buffered saline (PBS), resuspended in PBS containing 1 μg/ml propidium iodide (PI) for 10 minutes. Cells were analysed using a FACSCalibur (BD Biosciences, Oxford, UK) using the FL2 channel. […] The proportion of cells with intense fluorescence as a proportion of total cells was calculated.
To assess cell death promoting activity, the ability of SFZ and the analogues with enhanced NF-kB inhibiting activity (3a, 3e and 3f) to kill Epstein-Barr virus transformed human B-cells, which are dependent on NF-kB for survival was compared (Cahir-McFarland E D, Carter K, Rosenwald A, et al. Role of NF-kB in cell survival and transcription of latent membrane protein 1-expressing or Epstein-Barr virus latency III-infected cells. J Virol 2004; 78: 4108-4119). […] Dose response experiments were performed to determine IC50 values (FIG. 4b).
ARH77 cells were incubated with various concentrations of SFZ, compounds 3a, 3e and 3f, DMSO as a solvent control, or were left untreated. […] (A) Representative histogram of fluorescence in untreated, DMSO or compound 3e (250 μM) treated cells. (B) Representative dose response experiment (□, untreated; ♦, DMSO; ▴, SFZ; ●, 3a; +, 3e; ×, 3f). Each data point is the mean of duplicate determinations (±SD). (C) Mean IC50 values (±SD) for induction of ARH77 cell death, derived from two independent experiments each performed in duplicate.

Take `COc1ccc(CNS(=O)(=O)c2ccc(/N=N/c3ccc(O)c(C(=O)O)c3)cc2)cc1` [Compound 3a, 2-hydroxy-5-[4-(4-methoxy-benzylsulfamoyl)-phenylazo]-benzoic acid]: the results for the half-maximal inhibitory concentration (IC50) in the experiment on NF-kB and in the experiment with ARH77 cells were 150 ± 27 µM and 499 ± 93 µM, respectively. Besides, the “improved inhibitory activity relative to SFZ” value in the experiment on NF-kB (NF-kB inhibition, LPS treated U937 cells) stood at 7 fold. Moreover, the “effect on IkB-α phosphorylation and degradation” value in the experiment on IkB-α (200 μM) was “partially effective”; with IkB-α (500 μM) it was “prevented IkB-α phosphorylation and degradation”.
With `Cc1cc(/N=N/c2ccc(S(=O)(=O)NCc3ccc(C(F)(F)F)cc3)cc2)cc(C(=O)O)c1O` [Compound 3e, 2-hydroxy-3-methyl-5-[4-(4-trifluoromethyl-benzylsulfamoyl)-phenylazo]-benzoic acid], the results for the IC50 in the experiment on NF-kB and in the experiment on ARH77 cells were 127 ± 19 µM and 195 ± 38 µM, respectively. The “effect on IkB-α phosphorylation and degradation” value was “partially effective” in the experiment on IkB-α (200 μM); “prevented IkB-α phosphorylation and degradation” with IkB-α (500 μM).
With `O=C(O)c1cc(/N=N/c2ccc(S(=O)(=O)NCc3ccc(C(F)(F)F)cc3)cc2)ccc1O` [Compound 3f, 2-hydroxy-5-[4-(4-trifluoromethyl-benzylsulfamoyl)-phenylazo]-benzoic acid], the figures for the IC50 with NF-kB and in the experiment with ARH77 cells were 89 ± 26 µM and 407 ± 11 µM, respectively. The “effect on IkB-α phosphorylation and degradation” value in the experiment on IkB-α (200 μM) is “partially effective”; with IkB-α (500 μM), “prevented IkB-α phosphorylation and degradation”.
`O=C(O)c1cc(/N=N/c2ccc(S(=O)(=O)Nc3ccccn3)cc2)ccc1O` [SFZ, Sulfasalazine, reference compound]: the results for the half-maximal inhibitory concentration (IC50) with NF-kB and in the experiment with ARH77 cells were 1190 ± 96 µM and 1100 ± 250 µM, respectively. Moreover, the “effect on regulation of IkB-α” value in the experiment on IkB-α (1 mM) was “only very modest effects”.
